For 20 compounds, Activity and growth results are on record in ChEMBL document CHEMBL3045943, “Novel N-aryl(alkaryl)-2-[(3-R-2-oxo-2H-[1,2,4]triazino[2,3-c]quinazoline-6-yl)thio]acetamides: synthesis, cytotoxicity, anticancer activity, COMPARE analysis and docking” (2013).

Common to all, as to type: functional
The test system of experiment [1] is Photobacterium leiognathi. The experiment can be described thus: Growth inhibition of Photobacterium leiognathi Sh1 assessed as bio-luminescence at 0.1 mg/ml after 16 to 18 hr by chronic action test relative to control. Also on record: scale not given: the % may be the effect or the level left.
In experiment [2] the test system is Photobacterium leiognathi. Put plainly: Growth inhibition of Photobacterium leiognathi Sh1 assessed as bio-luminescence at 0.025 mg/ml after 16 to 18 hr by chronic action test relative to control. Also on record: scale not given: the % may be the effect or the level left.
Experiment [3] has as its system Photobacterium leiognathi. The experiment can be described thus: Growth inhibition of Photobacterium leiognathi Sh1 assessed as bio-luminescence at 0.25 mg/ml after 10 min by acute action test relative to control. Also on record: scale not given: the % may be the effect or the level left.
Experiment [4] concerns Photobacterium leiognathi. Put plainly: Growth inhibition of Photobacterium leiognathi Sh1 assessed as bio-luminescence at 0.1 mg/ml after 10 min by acute action test relative to control. Further details: scale not given: the % may be the effect or the level left.
In experiment [5] the test system is Photobacterium leiognathi. The experiment can be described thus: Growth inhibition of Photobacterium leiognathi Sh1 assessed as bio-luminescence at 0.025 mg/ml after 10 min by acute action test relative to control. Further details: scale not given: the % may be the effect or the level left.
The subject of experiment [6] is Photobacterium leiognathi. The experiment can be described thus: Growth inhibition of Photobacterium leiognathi Sh1 assessed as bio-luminescence at 0.25 mg/ml after 16 to 18 hr by chronic action test relative to control. Also on record: scale not given: the % may be the effect or the level left.
A further experiment concerns SR. Put plainly: Cytotoxicity against Homo sapiens (human) SR cells assessed as cell growth at 10 uM after 48 hr by SRB assay relative to control. The conditions noted are these: read-out: Activity.

Regarding `O=C(CSc1nc2ccccc2c2nc(=O)c(-c3ccccc3)nn12)NCc1cccc(C(F)(F)F)c1`, the Activity in experiment [1] is given as 10.67%; in experiment [2], 13.33%; in experiment [3], 17.78%; in experiment [4] it was 33.33%; in experiment [5], 66.67%; in experiment [6] it was 0%.

For `Cc1ccc(-c2nn3c(SCC(=O)Nc4ccccc4[N+](=O)[O-])nc4ccccc4c3nc2=O)cc1`, the Activity is reported as 250% in experiment [1]; 93% in experiment [2]; 62.5% in experiment [3]; 36% in experiment [4]; 83.3% in experiment [5]; 50% in experiment [6].

With `Cc1nn2c(SCC(=O)Nc3ccccc3C(F)(F)F)nc3ccccc3c2nc1=O`, the Activity is reported as 100% in experiment [1]; 100% in experiment [2]; 88.89% in experiment [3]; 86.67% in experiment [4]; 88.89% in experiment [5]; 97.14% in experiment [6].

On to `COc1ccccc1CNC(=O)CSc1nc2ccccc2c2nc(=O)c(C)nn12`, for which the Activity in experiment [1] is 160%; in experiment [2], 93.3%; in experiment [3] it was 139.4%; in experiment [4], 110%; in experiment [5], 89.2%; in experiment [6] it was 188%. The growth at 10 µM with SR stood at 75.6%.

`Cc1ccc(-c2nn3c(SCC(=O)Nc4ccc(Cl)cc4)nc4ccccc4c3nc2=O)cc1`: the Activity in experiment [1] is reported as 93.75%; in experiment [2], 75%; in experiment [3], 31.91%; in experiment [4] it was 63.83%; in experiment [5] it was 68.09%; in experiment [6] it was 37.5%.

In the case of `O=C(CSc1nc2ccccc2c2nc(=O)c(-c3ccccc3)nn12)Nc1cccc(Cl)c1`, the Activity in experiment [1] is listed as 100%; in experiment [2] it was 101.39%; in experiment [3], 59.52%; in experiment [4] it was 109.52%; in experiment [5], 104.76%; in experiment [6] it was 101.39%.

`Cc1ccc(-c2nn3c(SCC(=O)Nc4ccc(F)cc4)nc4ccccc4c3nc2=O)cc1`: the Activity worked out at 133.33% in experiment [1]; 250% in experiment [2]; 8.16% in experiment [3]; 36.73% in experiment [4]; 75.51% in experiment [5]; 166.67% in experiment [6].

As for `O=C(CSc1nc2ccccc2c2nc(=O)c(-c3ccccc3)nn12)Nc1cccc(F)c1`, the Activity in experiment [1] is listed as 38.89%; in experiment [2], 44.44%; in experiment [3], 96.36%; in experiment [4] it was 90.91%; in experiment [5], 94.55%; in experiment [6], 92.59%.

In the case of `CN(C)[C@@H]1C(O)=C(C(N)=O)C(=O)[C@@]2(O)C(O)=C3C(=O)c4c(O)cccc4[C@@](C)(O)[C@H]3C[C@@H]12` [TETRACYCLINE], the Activity in experiment [1] was determined as 0%; in experiment [2], 0%; in experiment [3], 0%; in experiment [4], 9.1%; in experiment [5], 80.7%; in experiment [6] it was 0%.

With `Cc1ccc(CNC(=O)CSc2nc3ccccc3c3nc(=O)c(C)nn23)cc1`, the Activity was 212.8% in experiment [1]; 122.2% in experiment [2]; 128.6% in experiment [3]; 100% in experiment [4]; 88.3% in experiment [5]; 150% in experiment [6]. The growth at 10 µM with SR was 81.8%.

In the case of `Cc1ccc(-c2nn3c(SCC(=O)Nc4cccc(F)c4)nc4ccccc4c3nc2=O)cc1`, the Activity turned out to be 32.93% in experiment [1]; 69.51% in experiment [2]; 65.22% in experiment [3]; 93.48% in experiment [4]; 97.83% in experiment [5]; 41.46% in experiment [6].

`COc1ccccc1NC(=O)CSc1nc2ccccc2c2nc(=O)c(-c3ccccc3)nn12`: the Activity worked out at 11.36% in experiment [1]; 22.73% in experiment [2]; 53.85% in experiment [3]; 63.46% in experiment [4]; 71.15% in experiment [5]; 18.18% in experiment [6].

Consider `Cc1nn2c(SCC(=O)Nc3ccccc3)nc3ccccc3c2nc1=O`, for which the Activity in experiment [1] turned out to be 61.11%; in experiment [2], 88.89%; in experiment [3] it was 95.59%; in experiment [4], 98.53%; in experiment [5] it was 95.59%; in experiment [6] it was 57.78%.

Take `Cc1cccc(NC(=O)CSc2nc3ccccc3c3nc(=O)c(C)nn23)c1`: the Activity is reported as 178.57% in experiment [1]; 196.43% in experiment [2]; 73.12% in experiment [3]; 98.92% in experiment [4]; 96.77% in experiment [5]; 14.29% in experiment [6].

Take `Cc1ccc(-c2nn3c(SCC(=O)Nc4ccc(C(F)(F)F)cc4)nc4ccccc4c3nc2=O)cc1`: the Activity is 116.7% in experiment [1]; 51.2% in experiment [2]; 142.5% in experiment [3]; 113.3% in experiment [4]; 103.3% in experiment [5]; 100% in experiment [6]. Moreover, the growth at 10 µM with SR came out at 66%.

As to `O=C(CSc1nc2ccccc2c2nc(=O)c(-c3ccccc3)nn12)Nc1ccccc1`, the Activity worked out at 83.33% in experiment [1]; 90.28% in experiment [2]; 47.62% in experiment [3]; 78.57% in experiment [4]; 95.24% in experiment [5]; 80.56% in experiment [6].

With `Cc1nn2c(SCC(=O)Nc3ccccc3F)nc3ccccc3c2nc1=O`, the Activity in experiment [1] amounted to 196.43%; in experiment [2] it was 142.86%; in experiment [3] it was 50.56%; in experiment [4], 73.03%; in experiment [5], 84.27%; in experiment [6], 142.86%.

Consider `COc1ccc(CNC(=O)CSc2nc3ccccc3c3nc(=O)c(C)nn23)cc1`, for which the Activity in experiment [1] is given as 176%; in experiment [2], 138.7%; in experiment [3], 151.5%; in experiment [4] it was 130%; in experiment [5] it was 92.3%; in experiment [6] it was 180%. For the same compound, in the experiment with SR, the growth at 10 µM is 71.5%.

Take `COc1ccc(-c2nn3c(SCC(=O)Nc4ccccc4C)nc4ccccc4c3nc2=O)cc1`: the Activity in experiment [1] turned out to be 94.55%; in experiment [2], 90.91%; in experiment [3] it was 68.42%; in experiment [4] it was 82.46%; in experiment [5] it was 96.49%; in experiment [6] it was 94.55%.

Regarding `O=C(CSc1nc2ccccc2c2nc(=O)c(-c3ccccc3)nn12)Nc1cccc(C(F)(F)F)c1`, the Activity was 203.13% in experiment [1]; 187.5% in experiment [2]; 46.67% in experiment [3]; 100% in experiment [4]; 96.67% in experiment [5]; 187.5% in experiment [6].
